molecular target: human Nav1.8 (Homo sapiens (Human), UniProt Q9Y5Y9); assay: E-VIPR optical membrane potential assay with electrical stimulation; type: cell-based; details: HEK cells expressing human Nav1.8
From the text: Assays for Detecting and Measuring NaV Inhibition Properties of Compounds E-VIPR Optical Membrane Potential Assay Method with Electrical Stimulation
Sodium channels are voltage-dependent proteins that can be activated by inducing membrane voltage changes by applying electric fields. The electrical stimulation instrument and methods of use are described in Ion Channel Assay Methods PCT/US01/21652, herein incorporated by reference and are referred to as E-VIPR. The instrument comprises a microtiter plate handler, an optical system for exciting the coumarin dye while simultaneously recording the coumarin and oxonol emissions, a waveform generator, a current- or voltage-controlled amplifier, and a device for inserting electrodes in well. Under integrated computer control, this instrument passes user-programmed electrical stimulus protocols to cells within the wells of the microtiter plate.
24 hours before the assay on E-VIPR, HEK cells expressing human Nav1.8 were seeded in 384-well poly-lysine coated plates at 15,000-20,000 cells per well. HEK cells were grown in media (exact composition is specific to each cell type and NaV subtype) supplemented with 10% FBS (Fetal Bovine Serum, qualified; GibcoBRL #16140-071) and 1% Pen-Strep (Penicillin-Streptomycin; GibcoBRL #15140-122). Cells were grown in vented cap flasks, in 90% humidity and 5% CO2.
1) Pre-spotted compounds (in neat DMSO) into compound plates. Vehicle control (neat DMSO), the positive control (20 mM DMSO stock tetracaine, 125 μM final in assay) and test compounds were added to each well at 160× desired final concentration in neat DMSO. Final compound plate volume was 80 μL (80-fold intermediate dilution from 1 μL DMSO spot; 160-fold final dilution after transfer to cell plate). Final DMSO concentration for all wells in assay was 0.625%.
2) Prepared Hexyl Dye Solution.
3) Prepared cell plates. On the day of the assay, medium was aspirated and cells were washed three times with 100 μL of Bath1 Solution, maintaining 25 μL residual volume in each well.
4) Dispensed 25 μL per well of Hexyl Dye Solution into cell plates. Incubated for 20-35 minutes at room temp or ambient conditions.
5) Dispensed 80 μL per well of Bath1 into compound plates. Acid Yellow-17 (1 mM) was added and Potassium Chloride was altered from 4.5 to 20 mM depending on the NaV subtype and assay sensitivity.
6) Washed cell plates three times with 100 μL per well of Bath1, leaving 25 μL of residual volume. Then transferred 25 uL per well from Compound Plates to Cell Plates. Incubated for 20-35 minutes at room temp/ambient condition.
7) Read Plate on E-VIPR. Used the current-controlled amplifier to deliver stimulation wave pulses for 10 seconds and a scan rate of 200 Hz. A pre-stimulus recording was performed for 0.5 seconds to obtain the un-stimulated intensities baseline. The stimulatory waveform was followed by 0.5 seconds of post-stimulation recording to examine the relaxation to the resting state.
Data was analyzed and reported as normalized ratios of emission intensities measured in the 460 nm and 580 nm channels. The response as a function of time was reported as the ratios obtained using the following formula: […]
The data was further reduced by calculating the initial (Ri) and final (Rf) ratios. These were the average ratio values during part or all of the pre-stimulation period, and during sample points during the stimulation period. The response to the stimulus R=Rf/Ri was then calculated and reported as a function of time.
Control responses were obtained by performing assays in the presence of a compound with the desired properties (positive control), such as tetracaine, and in the absence of pharmacological agents (negative control). Responses to the negative (N) and positive (P) controls were calculated as above. The compound antagonist activity A is defined as:
[formula] where R is the ratio response of the test compound

Sequence of human Nav1.8 (Q9Y5Y9 whole entry): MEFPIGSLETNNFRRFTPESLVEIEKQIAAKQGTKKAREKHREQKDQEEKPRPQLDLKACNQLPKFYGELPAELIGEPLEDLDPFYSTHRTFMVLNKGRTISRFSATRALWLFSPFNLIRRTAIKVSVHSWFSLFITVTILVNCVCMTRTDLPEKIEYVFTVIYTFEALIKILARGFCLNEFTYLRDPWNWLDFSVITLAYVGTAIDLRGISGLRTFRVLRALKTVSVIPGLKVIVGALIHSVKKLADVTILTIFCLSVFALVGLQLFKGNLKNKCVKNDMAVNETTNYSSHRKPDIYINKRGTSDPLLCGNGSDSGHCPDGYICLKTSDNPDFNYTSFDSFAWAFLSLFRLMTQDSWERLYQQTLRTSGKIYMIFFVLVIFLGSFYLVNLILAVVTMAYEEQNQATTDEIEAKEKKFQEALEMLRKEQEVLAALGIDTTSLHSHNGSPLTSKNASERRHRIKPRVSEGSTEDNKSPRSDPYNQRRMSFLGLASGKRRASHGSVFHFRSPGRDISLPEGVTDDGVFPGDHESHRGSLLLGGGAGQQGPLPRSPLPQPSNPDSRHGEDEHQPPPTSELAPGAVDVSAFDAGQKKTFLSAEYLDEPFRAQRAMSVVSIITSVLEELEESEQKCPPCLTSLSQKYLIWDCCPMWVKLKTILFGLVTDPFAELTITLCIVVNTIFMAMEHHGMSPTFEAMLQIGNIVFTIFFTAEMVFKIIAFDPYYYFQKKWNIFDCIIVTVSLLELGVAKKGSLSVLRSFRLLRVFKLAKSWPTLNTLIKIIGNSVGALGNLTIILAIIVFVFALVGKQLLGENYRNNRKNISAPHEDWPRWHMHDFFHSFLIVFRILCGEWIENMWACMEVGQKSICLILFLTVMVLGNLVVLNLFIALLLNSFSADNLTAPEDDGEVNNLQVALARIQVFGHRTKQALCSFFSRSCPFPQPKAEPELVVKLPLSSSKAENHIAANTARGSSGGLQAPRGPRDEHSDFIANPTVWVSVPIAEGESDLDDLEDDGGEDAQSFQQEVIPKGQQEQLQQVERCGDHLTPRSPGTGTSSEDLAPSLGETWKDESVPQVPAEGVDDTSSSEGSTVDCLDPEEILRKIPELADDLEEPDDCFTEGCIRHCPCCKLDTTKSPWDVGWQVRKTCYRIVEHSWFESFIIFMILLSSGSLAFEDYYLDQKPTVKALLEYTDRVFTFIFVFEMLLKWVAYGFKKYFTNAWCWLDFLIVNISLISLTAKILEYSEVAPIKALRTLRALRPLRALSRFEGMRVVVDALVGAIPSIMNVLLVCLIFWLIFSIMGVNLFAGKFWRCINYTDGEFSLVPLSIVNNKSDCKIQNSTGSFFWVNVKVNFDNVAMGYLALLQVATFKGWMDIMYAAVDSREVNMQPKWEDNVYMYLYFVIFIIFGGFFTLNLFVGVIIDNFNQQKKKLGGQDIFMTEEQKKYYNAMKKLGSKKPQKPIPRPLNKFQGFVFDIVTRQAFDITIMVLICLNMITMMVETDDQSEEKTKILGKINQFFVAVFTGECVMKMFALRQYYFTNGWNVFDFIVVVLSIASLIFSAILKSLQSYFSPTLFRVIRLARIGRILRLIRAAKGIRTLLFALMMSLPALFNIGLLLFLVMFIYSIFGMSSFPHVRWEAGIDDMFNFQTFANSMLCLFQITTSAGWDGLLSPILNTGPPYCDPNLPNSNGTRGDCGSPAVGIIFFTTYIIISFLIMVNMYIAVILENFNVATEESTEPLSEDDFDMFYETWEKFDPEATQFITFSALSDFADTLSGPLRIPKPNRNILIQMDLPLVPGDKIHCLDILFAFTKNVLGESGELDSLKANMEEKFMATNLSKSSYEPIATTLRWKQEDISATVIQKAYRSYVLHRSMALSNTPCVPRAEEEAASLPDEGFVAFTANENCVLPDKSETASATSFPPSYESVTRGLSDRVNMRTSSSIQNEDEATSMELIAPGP

IC50 [nM] | SMILES
4 | COc1ccc(Oc2nc3ccccc3nc2C(=O)Nc2cccc(S(N)(=O)=O)c2)c(Cl)c1 [Compound 4, 3-(2-chloro-4-methoxyphenoxy)-N-(3-sulfamoylphenyl)quinoxaline-2-carboxamide]
5 | COc1cc(Cl)ccc1Oc1nc2ccccc2nc1C(=O)Nc1cccc(S(N)(=O)=O)c1 [Compound 11, 3-(4-chloro-2-methoxyphenoxy)-N-(3-sulfamoylphenyl)quinoxaline-2-carboxamide]
42 | COc1ccc(Oc2nc3ccccc3nc2C(=O)Nc2cccc(S(N)(=O)=O)c2)cc1F [Compound 7, 3-(3-fluoro-4-methoxyphenoxy)-N-(3-sulfamoylphenyl)quinoxaline-2-carboxamide]
7 | Cc1cc(F)ccc1Oc1nc2ccccc2nc1C(=O)Nc1cccc(S(N)(=O)=O)c1 [Compound 14, 3-(4-fluoro-2-methylphenoxy)-N-(3-sulfamoylphenyl)quinoxaline-2-carboxamide]
11 | COc1cc(F)ccc1Oc1nc2ccccc2cc1C(=O)Nc1cccc(S(N)(=O)=O)c1 [Compound 61, 2-(4-fluoro-2-methoxyphenoxy)-N-(3-sulfamoylphenyl)quinoline-3-carboxamide]
81 | NS(=O)(=O)c1cccc(NC(=O)c2cc3ccccc3nc2Oc2ccccc2)c1 [Compound 64, 2-phenoxy-N-(3-sulfamoylphenyl)quinoline-3-carboxamide]
61 | NS(=O)(=O)c1cccc(NC(=O)c2cc3ccccc3nc2Oc2ccc(OCC(F)(F)F)cc2)c1 [Compound 67, N-(3-sulfamoylphenyl)-2-(4-(2,2,2-trifluoroethoxy)phenoxy)quinoline-3-carboxamide]
15 | COc1ccc(Oc2nc3ccccc3cc2C(=O)Nc2cccc(S(N)(=O)=O)c2)c(Cl)c1 [Compound 69, 2-(2-chloro-4-methoxyphenoxy)-N-(3-sulfamoylphenyl)quinoline-3-carboxamide]
2 | NS(=O)(=O)c1cccc(NC(=O)c2cc3ccccc3nc2Oc2ccc(F)cc2Cl)c1 [Compound 66, 2-(2-chloro-4-fluorophenoxy)-N-(3-sulfamoylphenyl)quinoline-3-carboxamide]
14 | Cc1cc(Cl)ccc1Oc1nc2ccccc2nc1C(=O)Nc1cccc(S(N)(=O)=O)c1 [Compound 9, 3-(4-chloro-2-methylphenoxy)-N-(3-sulfamoylphenyl)quinoxaline-2-carboxamide]
22 | COc1ccc(Oc2nc3ccccc3nc2C(=O)Nc2cccc(S(N)(=O)=O)c2)c(F)c1 [Compound 12, 3-(2-fluoro-4-methoxyphenoxy)-N-(3-sulfamoylphenyl)quinoxaline-2-carboxamide]

Continued, compound first:

SMILES | IC50 [nM]
COc1cc(F)ccc1Oc1nc2ccccc2nc1C(=O)Nc1ccc2[nH]c(=O)[nH]c2c1 [Compound 57, 3-(4-fluoro-2-methoxyphenoxy)-N-(2-oxo-2,3-dihydro-1H-benzo[d]imidazol-5-yl)quinoxaline-2-carboxamide] | 19
COc1cc(F)ccc1Oc1nc2ccccc2nc1C(=O)Nc1cn[nH]c1 [Compound 43, 3-(4-fluoro-2-methoxyphenoxy)-N-(1H-pyrazol-4-yl)quinoxaline-2-carboxamide] | 220
COc1ccc(Oc2nc3ccccc3nc2C(=O)Nc2ccc(C(=O)O)nc2)c(OC)c1 [Compound 26, 5-(3-(2,4-dimethoxyphenoxy)quinoxaline-2-carboxamido)picolinic acid] | 46
CNS(=O)(=O)c1cccc(NC(=O)c2nc3ccccc3nc2Oc2ccc(F)cc2OC)c1 [Compound 16, 3-(4-fluoro-2-methoxyphenoxy)-N-(3-(N-methylsulfamoyl)phenyl)quinoxaline-2-carboxamide] | 22
Cc1cc(F)ccc1Oc1nc2ccccc2nc1C(=O)Nc1ccc(C(=O)O)nc1 [Compound 19, 5-(3-(4-fluoro-2-methylphenoxy)quinoxaline-2-carboxamido)picolinic acid] | 86
O=C(O)c1ccc(NC(=O)c2nc3ccccc3nc2Oc2ccc(F)cc2)cn1 [Compound 18, 5-(3-(4-fluorophenoxy)quinoxaline-2-carboxamido)picolinic acid] | 250
COc1cc(F)ccc1Oc1nc2ccccc2nc1C(=O)Nc1cccc(C(=O)O)c1 [Compound 36, 3-(3-(4-fluoro-2-methoxyphenoxy)quinoxaline-2-carboxamido)benzoic acid] | 460
O=C(O)c1ccc(NC(=O)c2nc3ccccc3nc2Oc2ccc(OC(F)(F)F)cc2)cn1 [Compound 31, 5-(3-(4-(trifluoromethoxy)phenoxy)quinoxaline-2-carboxamido)picolinic acid] | 15
COc1cc(F)ccc1Oc1nc2ccccc2nc1C(=O)Nc1ccc2[nH]nnc2c1 [Compound 42, N-(1H-benzo[d][1,2,3]triazol-5-yl)-3-(4-fluoro-2-methoxyphenoxy)quinoxaline-2-carboxamide] | 96
COc1cc(F)ccc1Oc1nc2ccccc2nc1C(=O)Nc1cc[nH]n1 [Compound 40, 3-(4-fluoro-2-methoxyphenoxy)-N-(1H-pyrazol-3-yl)quinoxaline-2-carboxamide] | 1700
O=C(O)c1ccc(NC(=O)c2nc3ccccc3nc2Oc2ccccc2)cn1 [Compound 20, 5-(3-phenoxyquinoxaline-2-carboxamido)picolinic acid] | 1080
COc1ccc(Oc2nc3ccccc3nc2C(=O)Nc2ccc(C(=O)O)nc2)c(Cl)c1 [Compound 30, 5-(3-(2-chloro-4-methoxyphenoxy)quinoxaline-2-carboxamido)picolinic acid] | 69
O=C(O)c1cc(NC(=O)c2nc3ccccc3nc2Oc2ccc(OC(F)(F)F)cc2)ccn1 [Compound 33, 4-(3-(4-(trifluoromethoxy)phenoxy)quinoxaline-2-carboxamido)picolinic acid] | 7
COc1cc(F)ccc1Oc1nc2ccccc2nc1C(=O)Nc1ccc(C#N)nc1 [Compound 51, N-(6-cyanopyridin-3-yl)-3-(4-fluoro-2-methoxyphenoxy)quinoxaline-2-carboxamide] | 37
COc1cc(F)ccc1Oc1nc2ccccc2nc1C(=O)Nc1ccc2cn[nH]c2c1 [Compound 47, 3-(4-fluoro-2-methoxyphenoxy)-N-(1H-indazol-6-yl)quinoxaline-2-carboxamide] | 130
COc1ccc(Oc2nc3ccccc3nc2C(=O)Nc2ccc(C(=O)O)nc2)cc1F [Compound 27, 5-(3-(3-fluoro-4-methoxyphenoxy)quinoxaline-2-carboxamido)picolinic acid] | 185
COc1cc(F)ccc1Oc1nc2ccccc2nc1C(=O)Nc1ccc2nc[nH]c2c1 [Compound 49, N-(1H-benzo[d]imidazol-6-yl)-3-(4-fluoro-2-methoxyphenoxy)quinoxaline-2-carboxamide] | 585
COc1cc(F)ccc1Oc1nc2ccccc2nc1C(=O)Nc1ccc(C#N)cn1 [Compound 52, N-(5-cyanopyridin-2-yl)-3-(4-fluoro-2-methoxyphenoxy)quinoxaline-2-carboxamide] | 2400
O=C(O)c1ccc(NC(=O)c2nc3ccccc3nc2Oc2ccc(F)cc2F)cn1 [Compound 29, 5-(3-(2,4-difluorophenoxy)quinoxaline-2-carboxamido)picolinic acid] | 185
COc1cc(F)ccc1Oc1nc2ccccc2nc1C(=O)Nc1ccc(C(=O)O)nc1 [Compound 32, 5-(3-(4-fluoro-2-methoxyphenoxy)quinoxaline-2-carboxamido)picolinic acid] | 83

— patent US9139529B2, “Substituted quinoxalines as sodium channel modulators” (VERTEX PHARMACEUTICALS INCORPORATED, priority 2013, dated 2015)
